Like-named read-outs stand apart in the source and are kept apart here.
Tests used:
Venturia inaequalis = assay: Venturia Test (Apple)/protective; format: in vivo; details: 240 h, read-out: Efficacy in %
Method: (§1) To produce a suitable preparation of active compound, 1 part by weight of active compound is mixed with the stated amounts of solvent and emulsifier, and the concentrate is diluted with water to the desired concentration.
To test for protective activity, young plants are sprayed with the preparation of active compound at the stated application rate. After the spray coating has dried on, the plants are inoculated with an aqueous conidia suspension of the apple scab pathogen Venturia inaequalis and then remain in an incubation cabin at about 20° C. and 100% relative atmospheric humidity for 1 day.
The plants are then placed in a greenhouse at about 21° C. and a relative atmospheric humidity of about 90%.
(§2) Evaluation is carried out 10 days after the inoculation. 0% means an efficacy which corresponds to that of the control, whereas an efficacy of 100% means that no infection is observed.

Alternaria solani = assay: Alternaria Test (Tomato)/protective; format: in vivo; details: 48 h, read-out: Efficacy in %
Method: as §1
To test for protective activity, young tomato plants are sprayed with the preparation of active compound at the stated application rate. 1 day after the treatment, the plants are inoculated with an aqueous spore suspension of Alternaria solani. The plants are then placed in an incubation cabin at about 20° C. and 100% relative atmospheric humidity.
Evaluation is carried out 2 days after the inoculation. 0% means an efficacy which corresponds to that of the control, whereas an efficacy of 100% means that no infection is observed.

[1] = logP determination by HPLC (reversed-phase C 18), acidic range; format: physicochemical; details: pH 2.3, HPLC reversed-phase C 18, 43° C., 0.1% aqueous phosphoric acid/acetonitrile
Method: The logP values given in the Preparation Examples were determined in accordance with EEC Directive 79/831 Annex V.A8 by HPLC (High Performance Liquid Chromatography) using a reversed-phase column (C 18). Temperature: 43° C.
Mobile phases for the determination in the acidic range: 0.1% aqueous phosphoric acid, acetonitrile; linear gradients from 10% acetonitrile to 90% acetonitrile.
Calibration was carried out using unbranched alkan-2-ones (having 3 to 16 carbon atoms) with known logP values (determination of the logP values by the retention times using linear interpolation between two successive alkanones).

Podosphaera leucotricha = assay: Podosphaera Test (Apple)/protective; format: in vivo; details: 240 h, read-out: Efficacy in %
Method: Podosphaera Test (Apple)/Protective
• Solvents: 24.5 Parts by weight of acetone 24.5 Parts by weight of dimethylacetamide • Emulsifier: 1.0 Part by weight of alkylaryl polyglycol ether
(§3) To produce a suitable preparation of active compound, 1 part by weight of active compound is mixed with the stated amount of solvent and emulsifier, and the concentrate is diluted with water to the desired concentration.
To test for protective activity, young plants are sprayed with the preparation of active compound at the stated application rate. After the spray coating has dried on, the plants are inoculated with an aqueous spore suspension of the apple mildew pathogen Podosphaera leucotricha. The plants are then placed in a greenhouse at about 23° C. and a relative atmospheric humidity of about 70%.
as §2

Puccinia recondita = assay: Puccinia Test (Wheat)/protective; format: in vivo; details: protective, 500 g/ha, evaluation 10 days after inoculation
Method: as §1
(§4) To test for protective activity, young plants are sprayed with the preparation of active compound at the stated application rate. After the spray coating has dried on, the plants are sprayed with a conidia suspension of Puccinia recondita. The plants remain in an incubation cabin at 20° C. and 100% relative atmospheric humidity for 48 hours.
The plants are then placed in a greenhouse at a temperature of about 20° C. and a relative atmospheric humidity of about 80% to promote the development of rust pustules.
as §2

Pyrenophora teres = Pyrenophora teres Test (Barley)/protective; format: in vivo; details: protective, 500 g/ha, evaluation 7 days after inoculation
Method: as §3
as §4, with “Pyrenophora teres.” for “Puccinia recondita.”
The plants are then placed in a greenhouse at temperature of about 20° C. and a relative atmospheric humidity of about 80%.
Evaluation is carried out 7 days after the inoculation. 0% means an efficacy which corresponds to that of the control, whereas an efficacy of 100% means that no infection is observed.

| chromatographic logP ([1]; reversed-phase C18 HPLC column) | Compound | pest or weed control at 100 g/ha (Venturia inaequalis; apple, protective, 100 g/ha, evaluation 10 days after inoculation) [%] | pest or weed control at 100 g/ha (Alternaria solani; tomato, protective, 100 g/ha, evaluation 2 days after inoculation) [%] | pest or weed control at 100 g/ha (Podosphaera leucotricha; apple, protective, application rate 100 g/ha, evaluation 10 days after inoculation) [%] | pest or weed control at 100 g/ha (Venturia inaequalis) [%] | pest or weed control at 100 g/ha (Alternaria solani) [%] | Efficacy in % (Puccinia recondita) [%] | chromatographic logP [1] | pest or weed control at 100 g/ha (Podosphaera leucotricha) [%] | Efficacy in % (Pyrenophora teres) [%] |
| --- | --- | --- | --- | --- | --- | --- | --- | --- | --- | --- |
| 3.61 | CC1=C(C(=O)Nc2ccccc2-c2ccc(Cl)cc2F)SCCO1 [Example 1, N-(4′-chloro-2′-fluoro-1,1′-biphenyl-2-yl)-2-methyl-5,6-dihydro-1,4-oxathiine-3-carboxamide] | 100 | 94 | 99 | – | – | – | – | – | – |
| – | CC1=C(C(=O)Nc2ccccc2-c2ccc(Cl)c(Cl)c2)SCCO1 [Example 6] | – | – | – | 100 | 100 | 100 | 4.02 | 100 | – |
| – | CC1=C(C(=O)Nc2ccccc2-c2ccc(Cl)cc2Cl)SCCO1 [Example 7] | – | – | – | 100 | 98 | – | – | 100 | – |
| – | CC1=C(C(=O)Nc2ccccc2-c2ccc(Cl)cc2C)SCCO1 [Example 8] | – | – | – | 99 | 94 | – | 4.26 | 96 | – |
| – | CC1=C(C(=O)Nc2ccccc2-c2ccc(Cl)c(F)c2)SCCO1 [Example 9] | – | – | – | 100 | 100 | 100 | 3.67 | 100 | 95 |
| – | CC1=C(C(=O)Nc2ccccc2-c2ccc(F)c(Cl)c2)SCCO1 [Example 10] | – | – | – | 100 | 94 | – | 3.7 | 93 | – |
| – | CC1=C(C(=O)Nc2ccccc2-c2ccc(F)c(F)c2)SCCO1 [Example 12] | – | – | – | 100 | 95 | – | 3.38 | – | – |
| – | CC1=C(C(=O)Nc2ccccc2-c2ccc(Cl)c(C(F)(F)F)c2)SCCO1 [Example 13] | – | – | – | 99 | 94 | – | 4.03 | – | – |
| – | CC1=C(C(=O)Nc2ccccc2-c2ccc(Cl)c(C)c2)SCCO1 [Example 15] | – | – | – | 100 | 96 | – | 4.17 | 98 | – |
| – | CC1=C(C(=O)Nc2c(F)cccc2-c2ccc(Cl)c(Cl)c2)SCCO1 [Example 16] | – | – | – | 100 | 95 | – | 3.53 | 90 | – |
| – | CC1=C(C(=O)Nc2ccccc2-c2ccc(Cl)cc2)SCCO1 [Example 17] | – | – | – | 93 | 93 | – | 3.69 | – | 100 |
| – | CC1=C(C(=O)Nc2ccccc2-c2ccc(C#N)cc2)SCCO1 [Example 19] | – | – | – | – | – | – | 2.74 | – | 93 |
